Data taken from patent US6177438A, “Morphinan derivatives and pharmaceutical use thereof” (priority 1993, dated 2001).
Structures can show the parent of a compound that is named as a salt.

Test system: acetic acid-induced writhing in ddy mice
Assay: animal or person
Assay type: in vivo, 5 week old ddy mice
Conditions: Mus musculus, sc, s.c. 15 minutes before acetic acid, read-out: ED50
Description: 5 week old ddy mice were used in this test. After intraperitoneal administration of 0.1 ml of 0.6% aqueous acetic acid per 10 g of body weight, the number of writhing reactions that occurred in 10 minutes starting 10 minutes after administration was evaluated for the indicator. The test drug was administered subcutaneously into the backs of the animals 15 minutes before administration of acetic acid.

Row | SMILES | ED50 [mg/kg]
1 | COCCOC(=O)N(C)[C@@H]1CC[C@@]2(O)[C@H]3Cc4ccc(O)c5c4[C@@]2(CCN3CC2CC2)[C@H]1O5 [Compound 67, 17-cyclopropylmethyl-3,14β-dihydroxy-4,5α-epoxy-6β-(N-methyl-2-methoxyethoxycarbamido)morphinan.cndot.tartrate] | 0.36
2 | CN(C(=O)Cc1cccc(N=C=S)c1)[C@H]1CC[C@@]2(O)[C@H]3Cc4ccc(O)c5c4[C@@]2(CCN3CC2CC2)[C@H]1O5 [Compound 149, 17-cyclopropylmethyl-3,14β-dihydroxy-4,5α-epoxy-6α-(N-methyl-3-isothiocyanatophenylacetamido)morphinanan.cndot.methanesulfonate] | 0.013
3 | CN(C(=O)/C=C/c1ccsc1)[C@@H]1CC[C@@]2(O)[C@H]3Cc4ccc(O)c5c4[C@@]2(CCN3CC2CC2)[C@H]1O5 [Compound 71, 17-cyclopropylmethyl-3,14β-dihydroxy-4,5α-epoxy-6β-[N-methyl-trans-3-(3-thienyl)acrylamido]morphinan.cndot.methanesulfonate] | 0.0042
4 | CN(C(=O)C#Cc1ccoc1)[C@@H]1CC[C@@]2(O)[C@H]3Cc4ccc(O)c5c4[C@@]2(CCN3CC2CC2)[C@H]1O5.O=C(O)C(O)C(O)C(=O)O [Compound 177, 17-cyclopropylmethyl-3,14β-dihydroxy-4,5α-epoxy-6β-[N-methyl-(3-furyl)propiolamido]morphinan tartrate] | 0.0096
5 | CO[C@H](C(=O)N(C)[C@H]1CC[C@@]2(O)[C@H]3Cc4ccc(O)c5c4[C@@]2(CCN3CC2CC2)[C@H]1O5)c1ccccc1 [Compound 31, 17-cyclopropylmethyl-3,14β-dihydroxy-4,5α-epoxy-6α-[(S)-N-methylmethoxyphenylacetamido]morphinan.cndot.hydrochloride] | 0.75
6 | Br.CN(C(=O)/C=C/c1cc(Br)cs1)[C@@H]1CC[C@@]2(O)[C@H]3Cc4ccc(O)c5c4[C@@]2(CCN3CC2CC2)[C@H]1O5 (relative stereo) [Compound 157, 17-cyclopropylmethyl-3,14β-dihydroxy-4,5α-epoxy-6β-[N-methyl-trans-3-(4-bromo-2-thienyl)acrylamido]morphinan hydrobromide] | 0.003
7 | CN(C(=O)/C=C\c1ccoc1)[C@@H]1CC[C@@]2(O)[C@H]3Cc4ccc(O)c5c4[C@@]2(CCN3CC2CC2)[C@H]1O5.O=C(O)C(O)C(O)C(=O)O (relative stereo) [Compound 174, 17-cyclopropylmethyl-3,14β-dihydroxy-4,5α-epoxy-6β-[N-methyl-cis-3-(3-furyl)acrylamido]morphinan tartrate] | 0.16
8 | CN(C(=O)C#Cc1ccoc1)[C@H]1CC[C@@]2(O)[C@H]3Cc4ccc(O)c5c4[C@@]2(CCN3CC2CC2)[C@H]1O5.O=C(O)C(O)C(O)C(=O)O [Compound 188, 17-cyclopropylmethyl-3,14β-dihydroxy-4,5α-epoxy-6α-[N-methyl-(3-furyl)propiolamido]morphinan tartrate] | 0.002
9 | C/C(=C\C(=O)N(C)[C@@H]1CC[C@@]2(O)[C@H]3Cc4ccc(O)c5c4[C@@]2(CCN3CC2CC2)[C@H]1O5)c1ccccc1 [Compound 162, 17-cyclopropylmethyl-3,14β-dihydroxy-4,5α-epoxy-6β-(N-methyl-γ-methylcinnamamido)morphinan tartrate] | 0.018
10 | CCN(C(=O)Cc1ccc(Cl)c(Cl)c1)[C@@H]1CC[C@@]2(O)[C@H]3Cc4ccc(O)c5c4[C@@]2(CCN3CC2CC2)[C@H]1O5 [Compound 54, 17-cyclopropylmethyl-4,5α-epoxy-3,14β-dihydroxy-6β-(N-ethyl-3,4-dichlorophenylacetoamido)morphinan.cndot.hydrochloride] | 0.72
11 | CN(C(=O)NCc1ccccc1)[C@H]1CC[C@@]2(O)[C@H]3Cc4ccc(O)c5c4[C@@]2(CCN3CC2CC2)[C@H]1O5 [Compound 132, 17-Cyclopropylmethyl-3,14β-dihydroxy-4,5α-epoxy-6α-(N-methyl-N'-benzylureido)morphinan.cndot.tartrate] | 0.073
12 | CN(C(=S)NCc1ccccc1)[C@H]1CC[C@@]2(O)[C@H]3Cc4ccc(O)c5c4[C@@]2(CCN3CC2CC2)[C@H]1O5 [Compound 133, 17-cyclopropylmethyl-3,14β-dihydroxy-4,5α-epoxy-6α-(N-methyl-N'-benzylthioureido)morphinan.cndot.tartrate] | 0.044
13 | CN(C(=O)CCCCCc1ccccc1)[C@@H]1CC[C@@]2(O)[C@H]3Cc4ccc(O)c5c4[C@@]2(CCN3CC2CC2)[C@H]1O5 [Compound 202, 17-cyclopropylmethyl-3,14β-dihydroxy-4,5α-epoxy-6β-(N-methyl-6-phenylhexanoamido)morphinan hydrochloride] | 0.083
14 | CN(C(=O)/C=C/c1cccnc1)[C@@H]1CC[C@@]2(O)[C@H]3Cc4ccc(O)c5c4[C@@]2(CCN3CC2CC2)[C@H]1O5.O=C(O)C(O)C(O)C(=O)O (relative stereo) [Compound 153, 17-cyclopropylmethyl-3,14β-dihydroxy-4,5α-epoxy-6β-[N-methyl-trans-3-(3-pyridyl)acrylamido]morphinan tartrate] | 0.13
15 | CN(C(=O)Cc1ccccc1)[C@@H]1CC[C@@]2(O)[C@H]3Cc4ccc(O)c5c4[C@@]2(CCN3CC2CC2)[C@H]1O5 [Compound 55, 17-cyclopropylmethyl-3,14β-dihydroxy-4,5α-epoxy-6β-(N-methylphenylacetamido)morphinan.cndot.hydrochloride] | 0.98
16 | CN(C(=O)Cc1ccc(N)cc1)[C@H]1CC[C@@]2(O)[C@H]3Cc4ccc(O)c5c4[C@@]2(CCN3CC2CC2)[C@H]1O5 [Compound 137, 17-cyclopropylmethyl-3,14β-dihydroxy-4,5α-epoxy-6α-(N-methyl-4-aminophenylacetamido)morphinanan.cndot.1.6 hydrochloride] | 0.17
17 | Cc1occc1/C=C/C(=O)N(C)[C@@H]1CC[C@@]2(O)[C@H]3Cc4ccc(O)c5c4[C@@]2(CCN3CC2CC2)[C@H]1O5.Cl (relative stereo) [Compound 159, 17-cyclopropylmethyl-3,14β-dihydroxy-4,5α-epoxy-6β-[N-methyl-trans-3-(2-methyl-3-furyl)acrylamido]morphinan hydrochloride] | 0.0032
18 | CN(C(=O)COc1c(Cl)cc(Cl)cc1Cl)[C@@H]1CC[C@@]2(O)[C@H]3Cc4ccc(O)c5c4[C@@]2(CCN3CC2CC2)[C@H]1O5.Cl [Compound 199, 17-cyclopropylmethyl-3,14β-dihydroxy-4,5α-epoxy-6β-(N-methyl-2,4,6-trichlorophenoxyacetamido)morphinan hydrochloride] | 0.017
19 | COc1ccc2c3c1O[C@H]1[C@@H](N(C)C(=O)Cc4ccc(Cl)c(Cl)c4)CC[C@@]4(O)[C@@H](C2)N(CC2CC2)CC[C@]314 [Compound 142, 17-cyclopropylmethyl-4,5α-epoxy-14β-hydroxy-3-methoxy-6α-(N-methyl-3,4-dichlorophenylacetamido)morphinan.cndot.tartrate] | 0.78
20 | CN(C(=S)NCc1ccccc1)[C@@H]1CC[C@@]2(O)[C@H]3Cc4ccc(O)c5c4[C@@]2(CCN3CC2CC2)[C@H]1O5 [Compound 134, 17-cyclopropylmethyl-3,14β-dihydroxy-4,5α-epoxy-6β-(N-methyl-N'-benzylthioureido)morphinan.cndot.tartrate] | 0.15
21 | CN(C(=O)Cc1cccc(Br)c1)[C@H]1CC[C@@]2(O)[C@H]3Cc4ccc(O)c5c4[C@@]2(CCN3CC2CC2)[C@H]1O5 [Compound 26, 17-cyclopropylmethyl-3,14β-dihydroxy-4,5α-epoxy-6α-(N-methyl-3-bromophenylacetamido)morphinan.cndot.hydrobromate] | 0.099
22 | CN(C(=O)CCc1cccnc1)[C@H]1CC[C@@]2(O)[C@H]3Cc4ccc(O)c5c4[C@@]2(CCN3CC2CC2)[C@H]1O5 [Compound 41, 17-cyclopropylmethyl-3,14β-dihydroxy-4,5α-epoxy-6α-[N-methyl-3-(3-pyridyl)propionamido]morphinan.cndot.tartrate] | 0.39
23 | CN(C(=O)CC1CCCCC1)[C@H]1CC[C@@]2(O)[C@H]3Cc4ccc(O)c5c4[C@@]2(CCN3CC2CC2)[C@H]1O5 [Compound 85] | 0.113
24 | COc1ccc2c3c1O[C@H]1[C@H](N(C)C(=O)/C=C/c4ccoc4)CC[C@@]4(O)[C@@H](C2)N(CC2CC2)CC[C@]314 [Compound 217, 17-cyclopropylmethyl-4,5α-epoxy-14β-hydroxy-3-methoxy-6β-[N-methyl-trans-3-(3-furan)acrylamido]morphinan hydrochloride] | 0.018
25 | CN(C(=O)Cc1cccc2sccc12)[C@H]1CC[C@@]2(O)[C@H]3Cc4ccc(O)c5c4[C@@]2(CCN3CC2CC2)[C@H]1O5 [Compound 106, 17-cyclopropylmethyl-3,14β-dihydroxy-4,5α-epoxy-6α-(N-methyl-4-benzo[b]thienylacetamido)morphinan.cndot.hydrochloride] | 0.25
26 | CN(C(=O)CCCCc1ccccc1)[C@@H]1CC[C@@]2(O)[C@H]3Cc4ccc(O)c5c4[C@@]2(CCN3CC2CC2)[C@H]1O5 [Compound 203, 17-cyclopropylmethyl-3,14β-dihydroxy-4,5α-epoxy-6β-(N-methyl-5-phenylpentanoamido)morphinan hydrochloride] | 0.38
27 | CN(C(=O)/C=C/c1ccc(Cl)c(Cl)c1)[C@@H]1CC[C@@]2(O)[C@H]3Cc4ccc(O)c5c4[C@@]2(CCN3CC2CC2)[C@H]1O5 [Compound 179, 17-cyclopropylmethyl-3,14β-dihydroxy-4,5α-epoxy-6β-(N-methyl-3,4-dichlorocinnamamido)morphinan hydrochloride] | 0.0028

Same assay, conditions: s.c. 15 minutes before acetic acid

Row | SMILES | ED50 [mg/kg]
28 | Cc1ccc(C#CC(=O)N(C)[C@@H]2CC[C@@]3(O)[C@H]4Cc5ccc(O)c6c5[C@@]3(CCN4CC3CC3)[C@H]2O6)cc1.Cl [Compound 171, 17-cyclopropylmethyl-3,14β-dihydroxy-4,5α-epoxy-6β-[N-methyl-3-(4-methylphenyl)propiolamido]morphinan hydrochloride] | 0.038
